Columns and labels:
[1] = target: T1, ALK tyrosine kinase receptor (Homo sapiens, UniProt Q9UM73)
Target sequence in this assay (Q9UM73 whole entry): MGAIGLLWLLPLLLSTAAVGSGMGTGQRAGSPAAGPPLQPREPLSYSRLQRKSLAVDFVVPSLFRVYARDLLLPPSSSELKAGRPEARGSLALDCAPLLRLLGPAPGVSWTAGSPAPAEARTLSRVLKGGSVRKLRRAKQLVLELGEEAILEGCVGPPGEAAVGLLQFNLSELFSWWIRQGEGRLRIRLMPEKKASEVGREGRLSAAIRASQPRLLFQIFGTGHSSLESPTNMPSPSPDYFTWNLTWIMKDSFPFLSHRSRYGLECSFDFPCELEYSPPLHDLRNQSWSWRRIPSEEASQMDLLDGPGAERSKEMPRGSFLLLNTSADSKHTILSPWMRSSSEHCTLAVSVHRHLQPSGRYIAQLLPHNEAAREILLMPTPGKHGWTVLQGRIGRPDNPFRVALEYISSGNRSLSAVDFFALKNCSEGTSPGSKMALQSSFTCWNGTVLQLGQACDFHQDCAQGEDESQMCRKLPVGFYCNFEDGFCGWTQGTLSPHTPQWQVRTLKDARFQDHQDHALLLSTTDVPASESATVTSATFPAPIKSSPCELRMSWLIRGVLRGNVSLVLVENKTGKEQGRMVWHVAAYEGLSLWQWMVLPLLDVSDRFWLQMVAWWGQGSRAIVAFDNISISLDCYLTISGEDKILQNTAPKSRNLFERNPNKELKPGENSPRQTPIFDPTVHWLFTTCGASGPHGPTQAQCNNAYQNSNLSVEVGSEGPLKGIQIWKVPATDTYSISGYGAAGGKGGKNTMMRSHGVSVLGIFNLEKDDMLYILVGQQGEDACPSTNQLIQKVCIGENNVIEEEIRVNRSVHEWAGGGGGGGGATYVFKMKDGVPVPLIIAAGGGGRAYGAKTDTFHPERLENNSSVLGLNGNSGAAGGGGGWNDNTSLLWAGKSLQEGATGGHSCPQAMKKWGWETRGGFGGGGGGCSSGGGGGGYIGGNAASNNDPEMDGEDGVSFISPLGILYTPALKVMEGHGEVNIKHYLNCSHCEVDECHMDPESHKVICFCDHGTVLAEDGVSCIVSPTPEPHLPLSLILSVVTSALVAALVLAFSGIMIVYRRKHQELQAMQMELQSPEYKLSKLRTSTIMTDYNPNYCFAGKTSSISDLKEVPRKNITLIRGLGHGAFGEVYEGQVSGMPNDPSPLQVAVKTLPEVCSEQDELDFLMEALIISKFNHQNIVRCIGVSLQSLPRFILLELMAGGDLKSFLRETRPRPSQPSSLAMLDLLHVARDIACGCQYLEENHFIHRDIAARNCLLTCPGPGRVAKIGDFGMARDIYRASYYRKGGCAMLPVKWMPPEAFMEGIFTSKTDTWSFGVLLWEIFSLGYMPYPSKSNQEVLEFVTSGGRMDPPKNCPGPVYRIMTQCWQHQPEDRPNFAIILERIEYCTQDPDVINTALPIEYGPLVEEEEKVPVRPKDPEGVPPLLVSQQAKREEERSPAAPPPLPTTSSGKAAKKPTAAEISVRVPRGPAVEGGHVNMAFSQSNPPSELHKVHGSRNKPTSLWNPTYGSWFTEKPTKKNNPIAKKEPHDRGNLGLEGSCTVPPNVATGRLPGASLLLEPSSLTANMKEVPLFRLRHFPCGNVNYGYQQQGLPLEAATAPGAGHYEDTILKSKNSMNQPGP
Description: Inhibition of human ALK using poly[Glu:Tyr] (4:1) as substrate and [gamma-33P]ATP measured after 1 hr

[2] = cells; settings: Homo sapiens, KARPAS-299, 72 h
Description: Antiproliferative activity against human ALK-positive KARPAS299 cells assessed as reduction in cell viability measured after 72 hrs by CellTiter 96 aqueous one solution cell proliferation assay

[3] = cells; settings: Homo sapiens, U-937, 72 h
Description: Antiproliferative activity against human ALK-negative U937 cells assessed as reduction in cell viability measured after 72 hrs by CellTiter 96 aqueous one solution cell proliferation assay

[4] = target: Insulin-like growth factor 1 receptor (Homo sapiens, UniProt P08069)
[5] = target: Insulin receptor (Homo sapiens, UniProt P06213)
Description: Inhibition of human InsR using myelin basic protein as substrate and [gamma-33P]ATP measured after 1 hr

[6] = Half life in CD rat at 3 mg/kg, iv by LC-MS/MS analysis; type: ADME, organism-based; settings: CD, in vivo
[7] = AUC (0 to infinity) in CD rat at 10 mg/kg, po by LC-MS/MS analysis; type: ADME, organism-based; parameters: dose 10 mg/kg, route oral, time infinity; settings: in vivo
[8] = Half life in CD rat at 10 mg/kg, po by LC-MS/MS analysis; type: ADME, organism-based; settings: in vivo
[9] = Cmax in CD rat at 10 mg/kg, po by LC-MS/MS analysis; type: ADME, organism-based; parameters: dose 10 mg/kg, route oral; settings: in vivo
[10] = Volume of distribution at steady state in CD rat at 3 mg/kg, iv by LC-MS/MS analysis; type: ADME, organism-based; settings: CD, in vivo, read-out: Vdss
[11] = AUC (0 to infinity) in CD rat at 3 mg/kg, iv by LC-MS/MS analysis; type: ADME, organism-based; parameters: dose 3 mg/kg, time infinity, route intravenous; settings: CD, in vivo
[12] = Clearance in CD rat at 3 mg/kg, iv by LC-MS/MS analysis; type: ADME, organism-based; settings: in vivo
[13] = Tmax in CD rat at 10 mg/kg, po by LC-MS/MS analysis; type: ADME, organism-based; settings: in vivo
[14] = Oral bioavailability in CD rat at 10 mg/kg by LC-MS/MS analysis; type: ADME, organism-based; settings: in vivo
[15] = target: T1, ALK tyrosine kinase receptor; assay: Inhibition of ALK phosphorylation in mouse xenografted with human KARPAS299 cells assessed as p-ALK level at 25 mg/kg, po administered as single dose measured after 10 hrs relative to 2 hrs vehicle-treated tumor; type: organism-based; parameters: scale not given: the % may be the effect or the level left; settings: KARPAS-299
Target sequence in this assay (Q9UM73 19-1620 limits assumed): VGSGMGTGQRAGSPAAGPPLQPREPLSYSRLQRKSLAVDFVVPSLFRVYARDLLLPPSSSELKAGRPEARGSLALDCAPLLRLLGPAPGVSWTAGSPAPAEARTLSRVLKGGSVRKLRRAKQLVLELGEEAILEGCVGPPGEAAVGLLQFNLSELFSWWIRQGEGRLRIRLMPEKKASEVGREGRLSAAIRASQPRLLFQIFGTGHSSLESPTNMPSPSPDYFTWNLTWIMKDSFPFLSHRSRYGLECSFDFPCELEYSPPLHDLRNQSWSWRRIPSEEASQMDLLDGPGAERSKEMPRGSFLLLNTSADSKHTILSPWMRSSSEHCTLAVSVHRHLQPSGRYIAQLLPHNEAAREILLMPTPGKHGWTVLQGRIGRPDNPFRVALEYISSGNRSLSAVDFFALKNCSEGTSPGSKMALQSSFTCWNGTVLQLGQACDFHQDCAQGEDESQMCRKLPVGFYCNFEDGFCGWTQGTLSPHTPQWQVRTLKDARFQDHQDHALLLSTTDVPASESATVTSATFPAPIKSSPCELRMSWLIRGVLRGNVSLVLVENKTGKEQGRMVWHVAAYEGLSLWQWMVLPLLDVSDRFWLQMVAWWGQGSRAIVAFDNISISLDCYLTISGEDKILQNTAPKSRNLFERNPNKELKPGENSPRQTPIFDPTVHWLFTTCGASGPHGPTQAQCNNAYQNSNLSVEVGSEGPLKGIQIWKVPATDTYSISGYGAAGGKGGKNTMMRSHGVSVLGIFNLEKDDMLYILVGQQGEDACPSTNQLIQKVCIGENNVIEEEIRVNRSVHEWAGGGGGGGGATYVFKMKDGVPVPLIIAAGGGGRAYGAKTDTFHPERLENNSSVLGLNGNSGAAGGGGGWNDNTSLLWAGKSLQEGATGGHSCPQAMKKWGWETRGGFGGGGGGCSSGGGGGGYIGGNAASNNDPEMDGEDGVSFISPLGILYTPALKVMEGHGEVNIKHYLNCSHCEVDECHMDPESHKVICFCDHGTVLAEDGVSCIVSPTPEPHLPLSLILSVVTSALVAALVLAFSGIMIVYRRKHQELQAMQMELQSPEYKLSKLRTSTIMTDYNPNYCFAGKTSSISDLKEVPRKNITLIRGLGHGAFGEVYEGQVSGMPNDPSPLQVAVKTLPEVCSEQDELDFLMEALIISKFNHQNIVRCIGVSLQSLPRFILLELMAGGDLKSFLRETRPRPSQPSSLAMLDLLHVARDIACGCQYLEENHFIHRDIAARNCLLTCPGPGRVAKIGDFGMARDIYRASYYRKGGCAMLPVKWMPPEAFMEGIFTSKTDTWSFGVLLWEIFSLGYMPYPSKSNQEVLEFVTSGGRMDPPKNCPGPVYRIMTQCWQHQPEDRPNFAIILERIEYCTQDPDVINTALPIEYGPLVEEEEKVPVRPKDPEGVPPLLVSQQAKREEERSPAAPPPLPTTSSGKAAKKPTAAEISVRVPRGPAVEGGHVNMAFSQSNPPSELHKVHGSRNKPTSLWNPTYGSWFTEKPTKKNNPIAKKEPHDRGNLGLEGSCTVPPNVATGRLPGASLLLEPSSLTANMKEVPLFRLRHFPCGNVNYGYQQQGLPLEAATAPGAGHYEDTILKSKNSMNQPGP

[16] = target: T1, ALK tyrosine kinase receptor; assay: Inhibition of ALK phosphorylation in mouse xenografted with human KARPAS299 cells assessed as p-ALK level at 25 mg/kg, po administered as single dose measured after 16 hrs relative to 2 hrs vehicle-treated tumor; type: organism-based; parameters: scale not given: the % may be the effect or the level left; settings: KARPAS-299
Target sequence in this assay (Q9UM73 19-1620 limits assumed): as above

[17] = target: T1, ALK tyrosine kinase receptor; assay: Inhibition of ALK phosphorylation in mouse xenografted with human KARPAS299 cells assessed as p-ALK level at 25 mg/kg, po administered as single dose measured after 24 hrs relative to 2 hrs vehicle-treated tumor; type: organism-based; parameters: scale not given: the % may be the effect or the level left; settings: KARPAS-299
Target sequence in this assay (Q9UM73 19-1620 limits assumed): as above

Chain of Insulin-like growth factor 1 receptor (P08069 31-736 limits assumed): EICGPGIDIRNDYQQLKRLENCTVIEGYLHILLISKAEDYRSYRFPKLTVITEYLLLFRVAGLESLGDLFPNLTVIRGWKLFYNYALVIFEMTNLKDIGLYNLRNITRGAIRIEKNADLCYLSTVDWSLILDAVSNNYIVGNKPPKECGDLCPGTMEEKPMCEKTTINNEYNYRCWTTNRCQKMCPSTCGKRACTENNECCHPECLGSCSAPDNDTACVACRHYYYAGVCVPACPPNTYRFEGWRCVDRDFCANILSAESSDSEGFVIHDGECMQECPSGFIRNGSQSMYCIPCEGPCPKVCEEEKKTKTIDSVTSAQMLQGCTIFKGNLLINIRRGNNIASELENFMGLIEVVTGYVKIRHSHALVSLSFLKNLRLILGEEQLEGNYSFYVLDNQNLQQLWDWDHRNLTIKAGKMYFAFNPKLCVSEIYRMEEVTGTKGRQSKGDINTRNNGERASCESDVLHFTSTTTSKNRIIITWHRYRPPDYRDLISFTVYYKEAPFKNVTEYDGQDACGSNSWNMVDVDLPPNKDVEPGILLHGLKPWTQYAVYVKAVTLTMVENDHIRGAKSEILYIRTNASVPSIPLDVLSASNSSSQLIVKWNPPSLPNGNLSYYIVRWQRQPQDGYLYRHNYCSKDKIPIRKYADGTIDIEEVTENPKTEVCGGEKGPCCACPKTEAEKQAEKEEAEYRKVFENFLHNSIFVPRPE
Chain of Insulin-like growth factor 1 receptor (P08069 741-1367 limits assumed): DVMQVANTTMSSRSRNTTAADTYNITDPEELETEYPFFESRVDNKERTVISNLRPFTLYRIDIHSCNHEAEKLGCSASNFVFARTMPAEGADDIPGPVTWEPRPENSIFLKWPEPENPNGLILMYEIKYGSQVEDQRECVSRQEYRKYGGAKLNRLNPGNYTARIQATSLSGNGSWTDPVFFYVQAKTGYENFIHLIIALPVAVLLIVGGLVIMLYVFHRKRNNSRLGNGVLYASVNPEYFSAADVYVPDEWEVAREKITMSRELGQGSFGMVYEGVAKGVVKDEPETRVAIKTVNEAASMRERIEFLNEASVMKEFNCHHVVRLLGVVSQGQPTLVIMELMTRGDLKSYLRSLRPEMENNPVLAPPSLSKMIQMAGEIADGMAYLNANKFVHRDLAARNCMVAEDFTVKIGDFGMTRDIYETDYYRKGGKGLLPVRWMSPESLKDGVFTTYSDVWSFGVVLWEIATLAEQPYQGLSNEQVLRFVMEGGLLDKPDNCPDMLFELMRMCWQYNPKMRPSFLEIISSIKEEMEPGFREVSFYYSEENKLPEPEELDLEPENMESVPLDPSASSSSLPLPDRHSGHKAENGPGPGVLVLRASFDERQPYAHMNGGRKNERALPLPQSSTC

| SMILES | IC50 [1] | IC50 [2] | IC50 [3] | IC50 [4] | IC50 [5] | also measured |
| --- | --- | --- | --- | --- | --- | --- |
| COc1cc(N2CCC(N3CCN(C)CC3)CC2)ccc1Nc1ncc(Cl)c(Nc2ccccc2C(=O)N(C)C)n1 | 4.77 nM |  |  | 6.17 nM | 6.05 nM |  |
| COc1cc(P(C)(C)=O)ccc1Nc1ncc(Cl)c(Nc2ccccc2OC)n1 | 0.96 nM | 278 nM | 2910 nM | 22.1 nM | 55.2 nM |  |
| COc1cc(N2CCC(N3CCN(C)CC3)CC2)c(C)cc1Nc1ncc(Cl)c(Nc2ccccc2P(C)(C)=O)n1 | 0.86 nM |  |  | 27 nM | 171 nM | GI50 [2]: 16 nM; GI50 [3]: 1280 nM |
| COc1cc(N2CCC(N3CCN(C)CC3)CC2)ccc1Nc1ncc(OC)c(Nc2ccccc2P(C)(C)=O)n1 | 1.19 nM | 429 nM | 13900 nM | 117 nM | 1680 nM |  |
| COc1cc(N2CCC(N3CCN(C)CC3)CC2)ccc1Nc1ncc(Cl)c(Nc2ccccc2C(C)O)n1 (stereo unspecified) | 0.99 nM |  |  | 36.1 nM | 43.2 nM |  |
| COc1cc(N2CCC(N3CCN(C)CC3)CC2)ccc1Nc1ncc(Cl)c(Nc2ccccc2C#N)n1 | 1.86 nM |  |  | 51.6 nM | 128 nM |  |
| CNC(=O)CN1CCN(c2ccc(Nc3ncc(Cl)c(Nc4ccccc4P(C)(C)=O)n3)c(OC)c2)CC1 | 3.1 nM | 270 nM | 7000 nM | 125 nM | 459 nM |  |
| COc1cc(N2CCC(N3CCN(C)CC3)CC2)c(F)cc1Nc1ncc(Cl)c(Nc2ccccc2P(C)(C)=O)n1 | 1.03 nM | 162 nM | 1230 nM | 59.5 nM | 1180 nM |  |
| COc1cc(-c2cnn(C3CCNCC3)c2)ccc1Nc1ncc(Cl)c(Nc2ccccc2P(C)(C)=O)n1 | 0.76 nM | 322 nM | 6230 nM | 98.1 nM | 702 nM |  |
| COc1cc(N2CCC(N3CCN(C)CC3)CC2)ccc1Nc1ncc(C(C)=O)c(Nc2ccccc2P(C)(C)=O)n1 | 291 nM |  |  |  |  |  |
| COc1cc(N2CCN(C(C)=O)CC2)ccc1Nc1ncc(Cl)c(Nc2ccccc2P(C)(C)=O)n1 |  | 79.9 nM | 5450 nM | 32.5 nM | 103 nM |  |
| COc1ccccc1Nc1ncc(Cl)c(Nc2ccccc2S(=O)(=O)C(C)C)n1 | 2.1 nM | 349 nM | 20800 nM |  |  |  |
| COc1cc(N2CCC(N3CCN(C)CC3)CC2)ccc1Nc1ncc(Cl)c(Nc2ccccc2OC)n1 | 1.88 nM | 851 nM |  | 8.7 nM | 26 nM |  |
| COc1cc(N2CCC(N3CCN(C)CC3)CC2)ccc1Nc1ncc(C2CC2)c(Nc2ccccc2P(C)(C)=O)n1 | 3.23 nM | 278 nM | 10600 nM | 434 nM | 367 nM |  |
| COc1cc(P(C)(C)=O)ccc1Nc1ncc(Cl)c(Nc2ccccc2P(C)(C)=O)n1 | 1.06 nM | 738 nM | 13200 nM | 139 nM | 726 nM |  |
| COc1cc(N2CCC(N3CCN(C)CC3)CC2)ccc1Nc1ncc(Cl)c(Nc2ccccc2I)n1 | 1.36 nM | 705 nM |  | 6.2 nM | 13.7 nM |  |
| COc1cc(N2CCC(N3CCN(C)CC3)CC2)ccc1Nc1ncc(Cl)c(Nc2ccccc2C(N)=O)n1 | 0.8 nM |  |  | 1.4 nM | 3.4 nM |  |
| COc1cc(N2CCC(N3CCN(C)CC3)CC2)ccc1Nc1ncc(Cl)c(Nc2ccccc2)n1 | 9.9 nM |  |  | 51.6 nM | 81.7 nM |  |
| COc1cc(N2CCC(N3CCN(C)CC3)CC2)ccc1Nc1ncc(Cl)c(Nc2ccccc2C(C)=O)n1 | 1.59 nM |  |  | 1.33 nM | 2.16 nM |  |
| COc1cc(N2CCC(N3CCCCC3)C2)ccc1Nc1ncc(Cl)c(Nc2ccccc2P(C)(C)=O)n1 (stereo unspecified) | 0.88 nM | 66.7 nM | 2390 nM | 81.5 nM | 270 nM |  |
| COc1cc(P(C)(C)=O)ccc1Nc1ncc(Cl)c(Nc2ccccc2C(C)=O)n1 | 0.79 nM | 251 nM | 1420 nM | 0.47 nM | 0.88 nM |  |

The remaining compounds from weak to strong by IC50 [1], led by results:

| IC50 [1] | IC50 [2] | IC50 [3] | IC50 [4] | IC50 [5] | SMILES | also measured |
| --- | --- | --- | --- | --- | --- | --- |
| 0.75 nM |  |  | 1.93 nM | 8.44 nM | COc1cc(N2CCC(N3CCN(C)CC3)CC2)ccc1Nc1ncc(Cl)c(Nc2ccccc2S(=O)(=O)N(C)C)n1 |  |
| 0.75 nM | 58.9 nM | 22400 nM | 103 nM | 253 nM | CCOc1cc(N2CCC(N3CCN(C)CC3)CC2)ccc1Nc1ncc(Cl)c(Nc2ccccc2P(C)(C)=O)n1 |  |
| 0.72 nM | 53.9 nM | 2970 nM | 77.5 nM | 339 nM | COc1cc(N2CCCN(C)CC2)ccc1Nc1ncc(Cl)c(Nc2ccccc2P(C)(C)=O)n1 |  |
| 0.68 nM | 613 nM | 2370 nM | 0.11 nM | 14.1 nM | COc1cc(P(C)(C)=O)ccc1Nc1ncc(Cl)c(Nc2ccccc2C(N)=O)n1 |  |
| 0.68 nM | 54.6 nM | 21500 nM | 203 nM | 700 nM | CC(C)Oc1cc(N2CCC(N3CCN(C)CC3)CC2)ccc1Nc1ncc(Cl)c(Nc2ccccc2P(C)(C)=O)n1 |  |
| 0.59 nM |  |  | 0.76 nM | 5.1 nM | COc1cc(N2CCC(N3CCN(C)CC3)CC2)ccc1Nc1ncc(Cl)c(Nc2ccccc2S(C)(=O)=O)n1 |  |
| 0.49 nM | 105 nM | 3390 nM | 38.8 nM | 162 nM | COc1cc(N2CCC(N3CCCN(C)CC3)CC2)ccc1Nc1ncc(Cl)c(Nc2ccccc2P(C)(C)=O)n1 |  |
| 0.49 nM | 61 nM | 5680 nM | 47.3 nM | 270 nM | COc1cc(N2CCC(N3CCOCC3)CC2)ccc1Nc1ncc(Cl)c(Nc2ccccc2P(C)(C)=O)n1 | Activity [15]: 15%; half-life [6]: 3.9 h; Activity [16]: 52%; AUC(0-inf) [7]: 43600 ng·h/mL; half-life [8]: 6.8 h; Cmax [9]: 2840 ng/mL; Vd [10]: 0.78 L/kg; Activity [17]: 50%; AUC(0-inf) [11]: 17900 ng·h/mL; clearance [12]: 2.83 mL/min/kg; Tmax [13]: 2 h; bioavailability [14]: 73% |
| 0.42 nM | 46.9 nM | 5310 nM | 128 nM | 483 nM | COc1cc(N2CCC(N3CCN(C)CC3)CC2)ccc1Nc1ncc(C)c(Nc2ccccc2P(C)(C)=O)n1 |  |
| 0.39 nM | 147 nM | 24200 nM | 143 nM | 1680 nM | COc1cc(N2CCC(N3CCN(C)CC3)CC2)ccc1Nc1ncc(F)c(Nc2ccccc2P(C)(C)=O)n1 |  |
| 0.33 nM | 65.1 nM | 6330 nM | 100 nM | 397 nM | COc1cc(OC2CCN(C)C2)ccc1Nc1ncc(Cl)c(Nc2ccccc2P(C)(C)=O)n1 (stereo unspecified) |  |
| 0.33 nM | 405 nM | 4810 nM | 0.4 nM | 4.7 nM | COc1cc(P(C)(C)=O)ccc1Nc1ncc(Cl)c(Nc2ccccc2S(C)(=O)=O)n1 |  |
| 0.33 nM | 66.9 nM | 1170 nM | 42.7 nM | 489 nM | COc1cc(N2CC[C@@H](N(C)C)C2)ccc1Nc1ncc(Cl)c(Nc2ccccc2P(C)(C)=O)n1 |  |
| 0.31 nM | 20 nM | 4840 nM | 1.9 nM | 9.9 nM | COc1cc(P(C)(C)=O)ccc1Nc1ncc(Cl)c(Nc2ccccc2S(=O)(=O)C(C)C)n1 |  |
| 0.28 nM | 101 nM | 4920 nM | 43.3 nM | 285 nM | COc1cc(N2CCN(C3CCN(C)CC3)CC2)ccc1Nc1ncc(Cl)c(Nc2ccccc2P(C)(C)=O)n1 |  |
| 0.24 nM | 77.4 nM | 5990 nM | 51.4 nM | 399 nM | COc1cc(N2CCOCC2)ccc1Nc1ncc(Cl)c(Nc2ccccc2P(C)(C)=O)n1 |  |
| 0.22 nM | 113 nM | 2310 nM | 17.4 nM | 284 nM | COc1cc(OCCCN2CCCC2)ccc1Nc1ncc(Cl)c(Nc2ccccc2P(C)(C)=O)n1 |  |
| 0.18 nM | 37.6 nM | 1800 nM | 12.8 nM | 28.1 nM | COc1cc(N2CCN(CCO)CC2)ccc1Nc1ncc(Cl)c(Nc2ccccc2P(C)(C)=O)n1 | half-life [6]: 8.4 h; AUC(0-inf) [7]: 777 ng·h/mL; half-life [8]: 2.9 h; Cmax [9]: 75.7 ng/mL; Vd [10]: 9.51 L/kg; AUC(0-inf) [11]: 1330 ng·h/mL; clearance [12]: 35.8 mL/min/kg; Tmax [13]: 4 h; bioavailability [14]: 18% |
| 0.12 nM | 169 nM | 3460 nM | 45.1 nM | 314 nM | CCP(=O)(CC)c1ccccc1Nc1nc(Nc2ccc(N3CCC(N4CCN(C)CC4)CC3)cc2OC)ncc1Cl |  |
| 0.07 nM | 41.5 nM | 1720 nM | 3.2 nM | 100 nM | COc1cc(N2CCC(N(C)C)CC2)ccc1Nc1ncc(Cl)c(Nc2ccccc2P(C)(C)=O)n1 |  |
